# From patent US7034051B2, “Fused bicyclic carboxamide derivatives and methods of their use” (Adolor Corporation, priority 2003, dated 2006)
# What was measured:
# [1] = biological target: T1, cloned human δ opioid receptor (Homo sapiens, UniProt P41143); assay: In vitro binding assay, inhibition of [3H]diprenorphine binding to cloned human δ opioid receptor
# T1 construct: expressed in transfected cells
# Protocol: IC50 values were obtained by nonlinear analysis of the data using GraphPad Prism version 3.00 for Windows (GraphPad Software, San Diego). Ki values were obtained by Cheng-Prusoff corrections of IC50 values.
# After incubation at room temperature for one hour, the samples were filtered through GF/B filters that had been presoaked in a solution of 0.5% (w/v) polyethylenimine and 0.1% (w/v) bovine serum albumin in water. The filters were rinsed 4 times with 1 mL of cold 50 mM Tris HCl, pH 7.8 and radioactivity remaining on the filters determined by scintillation spectroscopy. Nonspecific binding was determined by the minimum values of the titration curves and was confirmed by separate assay wells containing 10 μM naloxone.
# To determine the equilibrium dissociation constant for the inhibitors (Ki), radioligand bound (cpm) in the presence of various concentrations of test compounds was measured. The concentration to give half-maximal inhibition (EC50) of radioligand binding was determined from a best nonlinear regression fit to the following equation,
# The nonlinear regression fit was performed using the program Prism® (GraphPad Software, San Diego, Calif.). The Ki values were then determined from the EC50 values by the following equation, […]
# [2] = tested on: formalin-induced flinching in rats; assay: In vivo formalin-induced nociception assay; parameters: species or system rat; details: dose of 300 μg, i.paw
# Excerpt: Administration of formalin into the paw results in a localized inflammation and a pain response that is moderate in intensity and continuous in duration. Unlike many other assays of nociception, the formalin assay measures tonic pain that is a result of tissue injury, and therefore is a model which is more relevant to clinical pain states in humans (see Tjolsen et al., Pain 51: 5–17, 1992). In the rat the response to formalin-induced pain consists of spontaneous flinching behavior, characterized by paw lifting and paw shaking, and a rapid vibration of the paw after drawing it under the body. […] The early or acute phase lasts from 0–5 minutes post-formalin and is followed by a quiescent period lasting approximately 15 minutes. The tonic phase occurs from 20–35 minutes following formalin injection and is the interval where the number of flinching responses is maximal. […]
# Inflammation is induced by subcutaneous injection of […] of a 5% formalin solution into the dorsal surface of the right hind paw of male Sprague-Dawley rats weighing 70–90 g. Injections of drug are given into the dorsal surface of the paw prior to formalin injection, and flinching behavior is quantitated by counting the number of responses that occur during the tonic phase of pain, lasting from 20–35 min after formalin injection. […]
# T1 sequence (P41143 whole entry): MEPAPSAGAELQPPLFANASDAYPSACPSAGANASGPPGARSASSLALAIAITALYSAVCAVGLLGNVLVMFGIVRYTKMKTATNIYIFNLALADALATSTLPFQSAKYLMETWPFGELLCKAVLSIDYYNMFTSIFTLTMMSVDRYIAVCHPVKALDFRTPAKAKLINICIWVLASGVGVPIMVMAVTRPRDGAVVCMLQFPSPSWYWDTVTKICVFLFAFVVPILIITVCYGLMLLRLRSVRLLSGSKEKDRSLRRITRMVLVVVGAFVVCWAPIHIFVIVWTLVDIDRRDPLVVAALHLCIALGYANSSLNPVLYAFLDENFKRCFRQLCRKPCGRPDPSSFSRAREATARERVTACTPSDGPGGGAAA
smiles,measurement,setting,value
"COC(=O)NCc1ccc2c(c1)CC[C@H](C(=O)N(C)[C@H](CN1CC[C@H](O)C1)c1ccccc1)O2 [Example 52, (2-{[2-({S}-3-Hydroxy-pyrrolidin-1-yl)-{S}-1-phenyl-ethyl]-(R)-methyl-carbamoyl}-chroman-6-ylmethyl)-carbamic acidmethyl ester]",Ki,[1],1600 nM
same,% A (percent antagonism of formalin-induced flinching),[2],95%
